In US20130072404A1, “APPARATUS AND PROCESSES FOR GENERATING VARIABLE CONCENTRATION OF SOLUTES IN MICRODROPLETS” (UNIVERSITE DE STRASBOURG, priority 2009, published 2013) one finds IC50 data, which are given here for 1 compound.

Read-outs that look alike come from different tables or passages of the source.

Holding throughout (design): purchased Sigma-Aldrich Co
Assay [1] addresses T1, β-galactosidase (Escherichia coli, UniProt P00722). Put plainly: Microplate dose-response assay, β-galactosidase (Example 2). In kind it is biochemical. The following applies: 8-point microplate assay, n=10; read-out: IC50 obtained in microplate. The method, then:
For β-galactosidase, a solution of the inhibitor PETG was diluted to 200 μM in PBS and then further diluted in 3-fold serial dilution steps seven times (200 μM down to […]). 10 μl aliquots of each dilution were pipetted into the wells of a black, opaque 384-well plate (Corning, Inc., New York, USA). A stock of the substrate FDG was diluted to 240 μM in PBS and 10 μl aliquots were added to the wells. The reactions were initiated by adding 20 μl of 10 U/ml β-galactosidase, in PBS containing 2 g/l BSA, to each well. A SpectraMax M5 microplate reader (Molecular Devices, Inc., California, USA) was used to monitor the reactions at 25° C. with an excitation wavelength of 490 nm, an emission wavelength of 514 nm (automatic cut-off), and a 15 second period between measurements. The initial rate of each reaction was determined and the percentage inhibition of β-galactosidase activity was calculated by scaling this initial rate between a blank (no enzyme, equivalent to 100% inhibition) and a positive control (no inhibitor, equivalent to 0% inhibition) in the same manner as Eq. 1 (see above). When required, the 4-parameter Hill function was fitted to a plot of percentage inhibition against logged inhibitor concentration to determine the IC50 of PETG.

Assay [2] deals with T1, β-galactosidase. Briefly: Standard microplate assay (Example 1 comparison values). In kind it is biochemical. The following applies: read-out: IC50 of PETG measured in a standard microplate assay.
Assay [3] has as its target T1, β-galactosidase. As to conditions: Angenendt et al., 2004; read-out: IC50 literature value; cited from earlier work.
The target in assay [4] is T1, β-galactosidase. Put plainly: Droplet microfluidic IC50 measurement, Taylor dispersion dilution (Example 1c), RBG substrate. The format is biochemical. As to conditions: Taylor dispersion pulse, 30 s droplet incubation, 4-parameter log-logistic fit; read-out: IC50 of PETG in the enzyme/substrate/inhibitor system. The text has this:
In the examples, the model systems comprised an enzyme, a substrate, and an inhibitor for IC50 measurements and an enzyme and substrate alone for KM measurements. In all cases the enzyme was β-galactosidase (Sigma-Aldrich Co.), the substrate was resorufin β-D-galactopyranoside (RBG; Invitrogen Corporation), and the inhibitor was phenylethyl β-D-thiogalactopyranoside (PETG; Invitrogen Corporation).
A microfluidic emulsion of 90 pl aqueous microdroplets was generated by injecting the microfluidic device (FIG. 2) with an oil phase and three aqueous phases. The oil phase consisted of 1% (w/w) EA surfactant dissolved in HFE-7500 flowing at 680 μl/hr. […]
The autosampler was used to introduce a single 1 μl pulse of 120 μM PETG (the inhibitor) to the PBS flowing to the device through the silane-treated capillary. The inclusion of 40 μM of the fluorophore sodium fluorescein with the inhibitor allowed the concentration of PETG to be inferred downstream from the degree of fluorescence observed in the 500-520 nm channel. […]
The microdroplets in the initial climb in inhibitor concentration (the leading front of the inhibitor pulse) were plotted in an XY graph with initial reaction rate (inferred from resorufin fluorescence after 30 seconds of droplet incubation) against inhibitor concentration (assumed to be proportional to sodium fluorescein fluorescence). […]

T1 sequence (P00722 2-1024 limits assumed): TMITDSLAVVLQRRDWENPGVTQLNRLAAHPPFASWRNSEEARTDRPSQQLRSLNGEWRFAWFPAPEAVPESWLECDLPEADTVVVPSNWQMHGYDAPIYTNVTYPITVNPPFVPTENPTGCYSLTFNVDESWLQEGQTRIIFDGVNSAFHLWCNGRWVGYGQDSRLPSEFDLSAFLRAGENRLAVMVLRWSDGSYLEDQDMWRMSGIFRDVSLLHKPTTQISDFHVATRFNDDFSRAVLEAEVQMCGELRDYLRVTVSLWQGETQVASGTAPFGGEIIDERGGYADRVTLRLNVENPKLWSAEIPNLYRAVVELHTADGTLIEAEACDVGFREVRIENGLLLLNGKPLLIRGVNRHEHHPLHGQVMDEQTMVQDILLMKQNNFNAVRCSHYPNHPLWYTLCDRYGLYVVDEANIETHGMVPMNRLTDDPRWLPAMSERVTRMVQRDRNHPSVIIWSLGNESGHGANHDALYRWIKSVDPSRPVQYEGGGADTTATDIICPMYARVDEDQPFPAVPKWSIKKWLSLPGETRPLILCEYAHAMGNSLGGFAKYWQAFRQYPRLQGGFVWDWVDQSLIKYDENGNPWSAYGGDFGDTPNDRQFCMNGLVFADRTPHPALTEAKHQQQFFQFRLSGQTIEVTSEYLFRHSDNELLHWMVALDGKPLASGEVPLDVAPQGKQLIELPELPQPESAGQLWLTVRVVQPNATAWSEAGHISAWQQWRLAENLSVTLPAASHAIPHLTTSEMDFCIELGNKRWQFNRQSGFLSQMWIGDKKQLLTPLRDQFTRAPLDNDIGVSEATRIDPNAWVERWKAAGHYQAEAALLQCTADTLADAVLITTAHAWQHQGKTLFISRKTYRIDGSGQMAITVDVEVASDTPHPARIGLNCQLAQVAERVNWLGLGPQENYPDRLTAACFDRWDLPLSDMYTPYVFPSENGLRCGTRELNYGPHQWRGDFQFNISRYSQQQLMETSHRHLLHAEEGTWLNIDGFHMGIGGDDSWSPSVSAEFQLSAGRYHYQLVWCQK

Regarding `OC[C@H]1O[C@@H](SCCc2ccccc2)[C@H](O)[C@@H](O)[C@H]1O` [PETG, phenylethyl β-D-thiogalactopyranoside], the IC50 at β-galactosidase [1] is 2720 nM; on β-galactosidase [2], 1430 nM; at β-galactosidase [3], 3100 nM; at β-galactosidase [4], 3040 nM.
